One experiment deals with NMDA receptors. The following applies: cited from earlier work.
The test system of another experiment is estrogenic activity. To be noted: cited from earlier work.
Experiment [1] concerns CA1 pyramidal cell layer of organotypic hippocampal slice cultures. Briefly: Hypoxic challenge of organotypic hippocampal slice cultures (PI fluorescence). It is filed as cell-based, Wistar rat. To be noted: 180 min hypoxia, 24 h recovery, hypoxia control 27.6±3.7%. The procedure:
Organotypic hippocampal slice cultures were prepared using the basic method of Pringle et al (1997) modified as follows:
Wistar rat pups (8-11 days old) were decapitated and the hippocampus rapidly dissected into ice-cold Goy's balanced salt solution supplemented with 4.5 mg/ml glucose. Slices were separated and plated into Millicell CM culture inserts (4 per well) and maintained at 37° C./5% CO2 for 14 days. Maintenance medium consisted of 25% heat-inactivated horse serum, 25% Hank's balanced salt solution (HBSS) and 50% minimum essential medium with added Earle's salts (MEM) supplemented with 1 mM glutamine and 4.5 mg/ml glucose.
Experimental hypoxia was performed as described previously (Pringle et al., (1996) Stroke 27, p2124-2130, (1997) Brain Research 755-46). Briefly, cultures were transferred to serum free medium (SFM—75% MEM, 25% HBSS supplemented with 1 mM glutamine and 4.5 mg/ml glucose) containing 5 μg/ml of the fluorescent exclusion dye propidium iodide (PI). Cultures were allowed to equilibrate in SFM for 60 minutes prior to imaging. PI fluorescence was detected using a standard Leica inverted microscope fitted with a rhodamine filter set (Leica N2). Any cultures in which PI fluorescence was detected at this stage were excluded from further study. Hypoxia was induced by transferring cultures to SFM (+PI) which had been saturated with 95% N2/5% CO2. Culture plates (without lids) were then sealed into an airtight chamber in which the atmosphere was saturated with 95% N2/5% CO2 by continuously blowing through gas at 1000 ml/min for ten minutes before being sealed and placed in the incubator for 170 mins (total time of hypoxia was therefore 180 mins). At the end of the hypoxia period cultures were returned to normoxic SFM containing PI and placed back in the incubator for 24 hours.
Neuronal damage was assessed as described previously (Pringle et al., 1996, 1997) using NIH Image 1.60 running on an Apple IIsi computer. Images were captured using a COHU monochrome camera and saved onto optical disk for offline analysis using NIH image. Light transmission images were captured prior to the addition of drugs, and PI fluorescence images recorded at the end of the 24 hour post-hypoxia recovery period. The areas of the CA1, CA3 and dentate gyrus (DG) cell layers were determined from the transmission image. The area of PI fluorescence in each of the cell layers was measured using the density slice function within NIH Image, and neuronal damage expressed as the percentage of the regional area in which PI fluorescence was detected above background.
Steroid compounds were prepared by making an initial 1 mg/ml solution in ethanol and further diluting down in SFM. Compounds were included in the cultures for 45 minutes prior to hypoxia, during the hypoxic episode and during the post-hypoxic recovery period. Control experiments consisted of cultures treated with vehicle alone.

A further experiment concerns Rat cortical neurons. In words: Glutamate induced neuronal cell death of primary cortical cultures (LDH release). It counts as cell-based, Wistar rat. To be noted: for effect on normal cell death: without glutamate. The procedure: Rat cortical neurons were cultured by modification of the methods of Dichter (1973) Brain Res 149, p279-293 and Durkin et al (1996) J. Neurochem 66, p951-962. A female Wistar rat (Janvier, Le Genest-St-Isle, France: ref RJ WAF151) of 17 days gestation was killed by cervical disclocation, the foetuses removed on embryonoic day 17 and brains removed and placed in ice-cold calcium/magnesium free Hanks balanced salt solution (HBSS: Gibco Life Technologies, Cergy-Pontoise, France: ref 14170-088 batch 302790). Each cortex was dissected and meninges were carefully removed.
The cortical neurons were dissociated by trypsinization for 5 minutes at 37° C. (trypsin: 0.5 mg/ml: Difco, LPCR, Strasbourg: ref 0152-14 batch 128856JC) and the reaction stopped by addition of HBSS containing calcium and magnesium (HBSS+ Gibco ref 24020-091; batch 3010598) with 10% of fetal bovine serum FBS; Gibco; ref 1027-098; batch 40Q1681K and 1 mg/ml DNase I (Boehringer Mannheim, Meylan, France; ref 1284938; batch 14880300).
The suspension was triturated with a 10 ml pipette (stripette Costar, Dutscher, Brumath, France) and was added in a centrifuge tube (Tube 50 ml Corning, Dutscher) containing 20 ml HBSS^− with 3.5% of BSA (Sigma, L'Isle D'Abeau Chesnes, ref. A6003, batch 29H7606) and centrifuged at low speed (150×g) for 10 min (apparatus Sigma 2-15, Bioblock, Illkirch, France).
The cells were resuspended in Dulbecco's Modified Eagle Medium (DMEM; Gibco; ref. 41965-039; batch 3032129), containing 20% FBS. Viable cells were quantified and plated at 35,000/well in 96 well plates (Nunclon, Gibco) previously coated with poly-L-lysine (0.01 mg/ml, France; ref. P5899; batch 28H8504). Cells were allowed to adhere 2 h and maintained in a humidified incubator at 37° C. in 5% CO2-95% air atmosphere.
Culture medium was then changed to a medium consisting of DMEM, 10% heat-inactivated FBS, 10% heat-inactived horse serum (Gibco, ref. 16505-080; batch 3030347) and 1% L-Glutamine (Gibco, ref. 25030-024; batch 3031499).
Since the cultures were mixed populations containing both neurons and glial cells, to minimize glial growth, the cultures were treated for 2 days with 15 μg/ml of 5-fluoro-2′-deoxyuridine (Sigma; ref. F8791; batch 97H4048) and 35 μg/ml of uridine (Sigma, ref. U3003; batch 18H11965) on day 4 of culture.
Following exposure to mitotic inhibitors, one-half of the medium was removed and replaced with growth medium consisting of 89% DMEM, 10% horse serum and 1% L-glutamine.
Glutamate toxicity experiments were performed after 13 days in culture (Glutamic acid; Sigma, ref. G6904; batch 18H11381).
On day 12, twenty-four hours before glutamate exposure, cultures were washed with DMEM and placed in medium DMEM/Ham12 with supplements but without estradiol.
The reference compounds, estradiol (Sigma, ref. E8875; batch 98H40953) and DHEA (Sigma, ref. D4000; batch 97H0301), and test compound were added at concentrations of 2, 10, 50 and 100 nM. Human FGF-basic (Tebu, Le Perray-en-Yvelines, France; ref. 100-18B; batch 107R0806 E118) was included as an additional reference and was tested at 5, 10 and 20 ng/ml. All compounds were dissolved at 10 mM in ethanol 100% (LPCR, ref. 20821467; batch J109), diluted 10,000 fold in DMEM and stocked at −20° C.
The effect of the test molecule on survival of cultured neurones was investigated alone and in intoxication conditions. The effect of the ethanol was also tested at the highest concentration used for dilution of the test molecules (100 nM=0.001% ethanol).
On day 13, cultures were exposed to glutamate 0.50, 100, 150, 200, 250, 300, 400 and 500 μM for 10 min at 37° C. in DMEM/hamF12 with supplement. The effects of the 2 reference compounds and the test compound was investigated in the presence of glutamate.
After the incubation period, the cultures were washed with DMEM and placed in DMEM/Ham12 with supplement either in the absence or presence of the compound to evaluate their post intoxication effects. […]
On the technique in general: LDH in the medium is a marker of cell lysis.

As for `CC(=O)[C@H]1CC[C@H]2[C@@H]3C(=O)C=C4C[C@@H](OS(=O)(=O)O)CC[C@]4(C)[C@H]3CC[C@]12C` [7-keto-pregnenolone sulphate], in the experiment with NMDA receptors, the “decrease of NMDA response” value is given as 12%.
Take `CC12CCC3c4ccc(O)cc4CC(=O)C3C1CCC2O` (stereo not shown) [7-keto-estradiol]: the “estrogenic activity as fraction of that of estrone” value in the experiment with estrogenic activity is reported as 1/300.
Turning to `C[C@]12CC[C@H](O)CC1=C[C@@H](O)[C@@H]1[C@@H]2CC[C@]2(C)C(=O)CC[C@@H]12` [7α-hydroxy-DHEA], the “neuronal damage: PI fluorescence as % of CA1” value (from here on “neuronal damage … as % of CA1”) in experiment [1] (10 nM) was determined as 1.1±0.9%. Also, in experiment [1] (concentration not given), the “neuronal death in CA1” value is 4.3±1.3%. In the experiment with Rat cortical neurons (10 nM), the “effect on normal cell death” value was “significantly decreased normal cell death”.
For the compound 3α-hydroxy-5β-pregnan-20-one sulphate, the “decrease of NMDA response” value in the experiment on NMDA receptors is 76%.
As to `C[C@]12CC[C@H](O)CC1=CC[C@@H]1[C@@H]2CC[C@]2(C)C(=O)CC[C@@H]12` [DHEA], the “effect on normal cell death” value with Rat cortical neurons (10 nM) and in the experiment with Rat cortical neurons (50 nM) was “protect significantly” in each case. Also, in the experiment on Rat cortical neurons (doses of 0, 50 and 100 nM, glutamate 200 μM), the “protection of cortical neurones from glutamate neurotoxicity” value is recorded as “failing to protect”.
On to `CC(=O)[C@H]1CC[C@H]2[C@@H]3[C@H](O)C=C4C[C@@H](O)CC[C@]4(C)[C@H]3CC[C@]12C` [7α-hydroxy-pregnenolone], for which the “neuronal damage … as % of CA1” value in experiment [1] (100 nM) came to 11.6±4.0%. The “less cell death in presence of glutamate” value with Rat cortical neurons (10 nM, glutamate 200 μM) is given as “up to 10%”.
Consider `C[C@]12CC[C@@H]3c4ccc(O)cc4CC[C@H]3[C@@H]1CC[C@@H]2O` [estradiol], for which the “effect on cell death in glutamate toxicity assay (FIG. 3)” value with Rat cortical neurons (primary cortical neurones) is “no effect”.
In the case of `C[C@]12CC[C@@H]3c4ccc(O)cc4C[C@@H](O)[C@H]3[C@@H]1CC[C@@H]2O` [7α-hydroxy-estradiol, Estra-1,3,5(10)-triene 3,7α,17β-triol], the “neuronal damage … as % of CA1” value is 21.5±11.3% in experiment [1] (1 nM), 13.0±4.7% in experiment [1] (10 nM) and 5.9±2.1% in experiment [1] (100 nM). Besides, the “estrogenic activity as fraction of that of estrone” value with estrogenic activity is reported as 1/300.

The values are drawn from patent publication US20030092692A1, “Cytoprotective steroids (II)” (priority 2000, published 2003).
